Legend:
[1] = test system: normal NK cells expanded with K562-aAPC; assay: percent inhibition of viability; higher = more inhibition; conditions: 72 h, IL-2 2.5 ng/mL
Experimental: (§1)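 Drug sensitivity and resistance testing on K562-aAPC-expanded normal NK cells: 5 concentrations (10-fold steps over a 10,000-fold range), 72 h at 37 °C, viability by CellTiter-Glo normalised to DMSO and benzethonium chloride controls; DSS from the fitted curve.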

[2] = test system: DERL-7 (IL-2 2.5 ng/mL); assay: as above; conditions: 72 h
[3] = test system: IMC-1 (IL-2 20 ng/mL); assay: as above; conditions: 72 h
[4] = test system: KAI3 (IL-2 2.5 ng/mL); assay: as above; conditions: 72 h
[5] = test system: KHYG-1 (IL-2 2.5 ng/mL); assay: as above; conditions: 72 h
[6] = test system: NK-92 (IL-2 2.5 ng/mL); assay: as above; conditions: 72 h
[7] = test system: NK-YS (IL-2 2.5 ng/mL); assay: as above; conditions: 72 h
[8] = test system: NKL (IL-2 2.5 ng/mL); assay: as above; conditions: 72 h
[9] = test system: SNK-6 (IL-2 2.5 ng/mL); assay: as above; conditions: 72 h
[10] = test system: YT (IL-2 2.5 ng/mL); assay: as above; conditions: 72 h
[11] = test system: normal primary NK cells, pool 1 (3 donors) (IL-2 2.5 ng/mL); assay: as above; conditions: 72 h
[12] = test system: normal primary NK cells, pool 1 (3 donors), resting (IL-2 0 ng/mL); assay: as above; conditions: 72 h
[13] = test system: normal primary NK cells, pool 2 (3 donors) (IL-2 2.5 ng/mL); assay: as above; conditions: 72 h
[14] = test system: normal primary NK cells, pool 3 (3 donors) (IL-2 2.5 ng/mL); assay: as above; conditions: 72 h
[15] = test system: normal NK cells expanded with K562-aAPC; assay: drug sensitivity score (DSS) (DSS units); higher = more sensitive; extreme values may be limits of the assay; conditions: 72 h; IL-2 2.5 ng/mL
Experimental: as §1

[16] = test system: DERL-7 (IL-2 2.5 ng/mL); assay: as above; conditions: 72 h
[17] = test system: IMC-1 (IL-2 20 ng/mL); assay: as above; conditions: 72 h
[18] = test system: KAI3 (IL-2 2.5 ng/mL); assay: as above; conditions: 72 h
[19] = test system: KHYG-1 (IL-2 2.5 ng/mL); assay: as above; conditions: 72 h
[20] = test system: NK-92 (IL-2 2.5 ng/mL); assay: as above; conditions: 72 h
[21] = test system: NK-YS (IL-2 2.5 ng/mL); assay: as above; conditions: 72 h
[22] = test system: NKL (IL-2 2.5 ng/mL); assay: as above; conditions: 72 h
[23] = test system: SNK-6 (IL-2 2.5 ng/mL); assay: as above; conditions: 72 h
[24] = test system: YT (IL-2 2.5 ng/mL); assay: as above; conditions: 72 h
[25] = test system: normal primary NK cells, pool 1 (3 donors) (IL-2 2.5 ng/mL); assay: as above; conditions: 72 h
[26] = test system: normal primary NK cells, pool 1 (3 donors), resting (IL-2 0 ng/mL); assay: as above; conditions: 72 h
[27] = test system: normal primary NK cells, pool 2 (3 donors) (IL-2 2.5 ng/mL); assay: as above; conditions: 72 h
[28] = test system: normal primary NK cells, pool 3 (3 donors) (IL-2 2.5 ng/mL); assay: as above; conditions: 72 h

O=C(c1cc(Cc2n[nH]c(=O)c3ccccc23)ccc1F)N1CCN(C(=O)C2CC2)CC1 [Olaparib] (max concentration tested 10000 nM)
percent inhibition of viability [%]
Conditions | 1 nM | 10 nM | 100 nM | 1000 nM | 10000 nM
[1] | 5.19 | 4.79 | 5.47 | 7.88 | 39.6
[2] | -1.68 | 4.77 | -8.94 | 1.1 | 31.5
[3] | 2.29 | 1.77 | 7.69 | 13.7 | 53.5
[4] | 0.33 | 3.77 | 9.9 | 28.6 | 72.2
[5] | -5.18 | -5.25 | 0.38 | 10.5 | 72.6
[6] | 4.94 | 9.54 | 8.93 | 21.5 | 79.2
[7] | -6.43 | -6.57 | 3.49 | 20.7 | 90.7
[8] | 0.33 | 9.8 | 27.9 | 57.2 | 80.5
[9] | 1.96 | -1.75 | -10.2 | 19.4 | 89.5
[10] | 4.35 | 1.35 | 5.37 | 3.91 | 22.8
[11] | 3.22 | 7.12 | -3.15 | 3.31 | 8.24
[12] | -10.9 | 1.92 | -9.9 | -1.32 | 15.6
[13] | -7.93 | -9.67 | -11 | 2.31 | 15.4
[14] | -7.91 | -1.82 | -4.22 | 3.8 | 13.5

Conditions | drug sensitivity score
[15] | 3.25
[16] | 1.54
[17] | 4.75
[18] | 7.15
[19] | 5.78
[20] | 7.35
[21] | 8.28
[22] | 14.5
[23] | 8.04
[24] | 1.37
[25] | 0
[26] | 0.22
[27] | 0.48
[28] | 0.4

COc1ccccc1S(=O)(=O)Nc1ccc2c(c1)CN(C)C(=O)N2 [PFI-1] (max concentration tested 10000 nM)
percent inhibition of viability [%]
Conditions | 1 nM | 10 nM | 100 nM | 1000 nM | 10000 nM
[1] | 1.38 | -2.34 | 0.83 | 10.4 | 45.7
[2] | -2.29 | 2.86 | 9.32 | 41.8 | 91.8
[3] | -2.65 | -6.11 | -1.36 | 1.44 | 52.3
[4] | -2.2 | 1.8 | -7.46 | 5.35 | 48
[5] | -2.18 | -2.43 | -0.21 | 19.9 | 89.2
[6] | -6.34 | 6.35 | -0.51 | -18.3 | 14.6
[7] | -6.14 | -3.35 | 2.77 | 24.8 | 70
[8] | -16 | -14.6 | -8.15 | 32 | 70.4
[9] | -3.16 | -6.59 | 7.82 | 7.89 | 48.9
[10] | 1.99 | 0.44 | -0.45 | 5.52 | 53.1
[11] | 1.67 | -1.14 | -0.56 | 0.29 | 39.4
[12] | -7.18 | 7.82 | -0.65 | -5.17 | 29.6
[13] | -9.32 | -3.5 | -1.83 | 9.71 | 50.9
[14] | -2.26 | -5.87 | 0.68 | 4.06 | 32.9

Conditions | drug sensitivity score
[15] | 4.03
[16] | 9.94
[17] | 2.96
[18] | 3.39
[19] | 8.09
[20] | 0.06
[21] | 7.15
[22] | 8.04
[23] | 3.9
[24] | 3.74
[25] | 1.98
[26] | 0.99
[27] | 4.3
[28] | 2.17

CCn1nnc2c(N3CCOCC3)nc(-c3ccc(NC(=O)Nc4ccc(C(=O)N5CCN(C)CC5)cc4)cc3)nc21 [PKI-402] (max concentration tested 2500 nM)
percent inhibition of viability [%]
Conditions | 0.25 nM | 2.5 nM | 25 nM | 250 nM | 2500 nM
[1] | -5.93 | -8.28 | -5.99 | 11.4 | 51
[2] | -1.72 | 1.39 | 10.1 | 79.5 | 93.8
[3] | -5.86 | -7.07 | -15 | -6.11 | 25.1
[4] | -2.89 | -4.76 | 8.59 | 55.9 | 67.9
[5] | -6.21 | -11 | -2.81 | 30.4 | 84.9
[6] | -19.1 | -16.8 | -1.05 | 13.1 | 63.7
[7] | -6.47 | -8.86 | 4.39 | 52 | 75.7
[8] | -5.68 | -11.2 | 4.32 | 60 | 68.9
[9] | -8.78 | -15.4 | -7.51 | 33.2 | 54.5
[10] | -3.62 | -7.8 | 0.22 | 50.5 | 82.6
[11] | 1.41 | -3.9 | 19.1 | 28.9 | 48.2
[12] | -7.29 | 0.44 | 14.9 | 31.1 | 26.7
[13] | -8.91 | -3.82 | 2.65 | 17.3 | 38.4
[14] | -10.9 | -4.56 | 0.88 | 11 | 34.4

Conditions | drug sensitivity score
[15] | 4.52
[16] | 15.9
[17] | 0.69
[18] | 11.4
[19] | 8.93
[20] | 5.62
[21] | 10.6
[22] | 11.6
[23] | 6.93
[24] | 10.6
[25] | 7.21
[26] | 7.08
[27] | 3.74
[28] | 3.19
